This passage reports inhibition in vivo and inhibition results from patent US8772299B2, “Phenyl piperazine compounds, pharmaceutical composition including the same and use thereof” (SK Biopharmaceuticals Co., Ltd., priority 2008, dated 2014).

Structures can show the parent of a compound that is named as a salt.

In general, inhibition in vivo refers to the percentage by which the read-out fell short of the control. A higher inhibition in vivo goes with strong suppression. A word on the inhibition: it is the share of the control response that was lost under treatment.

The subject of test [1] is mice. As to the kind of experiment: Anti-Marble Burying Behavior Test in Mice. The test is classed as in vivo. Conditions: Mus musculus, reduction in number of marbles buried, ip. An excerpt: Marble burying was developed and validated as a pre-clinical assay of potential anxiolytic activity (Andrews and Broekkamp (1993). Procedures to Identify Anxiolytic or Anxiogenic agents. In Behavioural Neuroscience, ed. A Sahgal, pp. 37-54. IRL Press, Oxford). The marble burying test places a naive mouse into a novel environment containing 25 marbles (arranged on top of a sawdust surface). A reduction in the number of marbles buried by the mouse was hypothesized to be an anxiolytic-like effect.

For test [2], the target named is T1, Serotonin 1A (5-HT1A) receptor (Rattus norvegicus, UniProt P19327).
T1 construct: The cortex tissue were homogenized in 30 volumes of ice-cold 50 mM Tris-HCl buffer; from tissue; host or cells: Sprague-Dawley rat brain cortex membranes
T1 sequence (P19327 1-422): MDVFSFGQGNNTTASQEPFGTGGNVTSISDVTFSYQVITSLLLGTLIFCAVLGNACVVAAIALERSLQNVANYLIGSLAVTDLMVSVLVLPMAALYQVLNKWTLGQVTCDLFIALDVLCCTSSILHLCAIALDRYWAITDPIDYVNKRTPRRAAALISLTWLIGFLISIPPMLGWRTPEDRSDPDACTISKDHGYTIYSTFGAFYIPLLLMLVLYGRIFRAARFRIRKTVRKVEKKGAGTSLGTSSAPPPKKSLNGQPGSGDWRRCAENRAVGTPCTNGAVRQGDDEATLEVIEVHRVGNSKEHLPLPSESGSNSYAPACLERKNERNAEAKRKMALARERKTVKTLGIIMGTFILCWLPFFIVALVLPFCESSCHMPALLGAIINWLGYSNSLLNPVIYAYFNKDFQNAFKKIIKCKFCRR
Kind of test: Serotonin 1A (5-HT1A) receptor inhibition assay, [3H]8-OH-DPAT binding to rat cortex membranes. Details: species or system Sprague-Dawley (SD) rats. Conditions: 10 nM test compound; 0.92 nM [3H]8-OH-DPAT; rat cortex homogenate; 60 min at 25° C. On the procedure: The method to test the ability of compounds to inhibit serotonin 1A(5-HT1A) receptors was using Hall. et al., J Neuro Chem., 1985, 44, p 1685-1696 with modification.
The Sprague-Dawley (SD) rats were killed by decapitation and their brains rapidly removed at 4° C. The cortex tissue were homogenized in 30 volumes of ice-cold 50 mM Tris-HCl buffer (pH7.4) using an ultra-turrax T8 and centrifuged at 48,000 g for 20 min. The supernatant was discarded and the pellet washed twice by resuspension in 20 volumes Tris-HCl and centrifugation, homogenized in 20 volumes Tris-HCl, and incubated at 37° C. for 10 min. Membranes were than collected by centrifugation and washed twice before final resuspension in 10 volumes of 50 mM Tris-HCl, pH7.4.
For binding assays, the incubation medium consisted of 162.5 ug of tissue homogenate, 0.92 nM of [3H]8-OH-DPAT and vehicle or 10 uM of 5-HT or 10 nM of test compounds per well. 5-HT and test compounds were dissolved in distilled water and incubation medium was 50 mM Tris(pH7.4 at room temperature). The assay plates (96 well) were incubated for 60 min at 25° C. The reaction was terminated by rapid filtration using a Tomtec harvester, through GF/C glassfibre filter with 5 times washes of Tris buffer. The radioactivity retained on the filters was counted by scintillation spectroscopy (MicroBeta TriLux, Wallac). The tests were triplicates. Percent inhibition was calculated as below equation.
Total binding is the value of vehicle treated group and specific binding is the values that deduct non-specific binding (i.e. the value of non-specific ligand, 5-HT).

The subject of test [3] is mice. As to the kind of experiment: Tail Suspension Test in Mice (TST). In kind it is in vivo. Conditions: Mus musculus, reduction in immobility vs control group, 1 mg/kg, po. The source says: Tail Suspension Test in mice is the well-known animal model to determine antidepressant efficacy of compounds by checking escaping behavior and immobility time of mice. Mice treated with antidepressant drug show escaping behavior continuously comparing with control group.
The mice were mainly treated orally with the test compound dissolved in 30% PEG400 or with only 30% PEG400 as control. Tail of mouse is suspended to the rod of TST equipment and end of tail is fixed with sticky tape. Suspended mouse is incubated during 2 min for training and adaptation and after following 2 min, observe escaping behavior and check immobility time for 4 min. The potent ability of the compounds was determined as percent value of reduction in immobility comparing to control group as 100% baseline.

For `O=C1CC2(CCCC2)CC(=O)N1CCCCN1CCN(c2ncccn2)CC1` [Buspirone, reference compound], at 20 mg/kg the inhibition in vivo with mice [1] (20 mg/kg) was 56%.

Turning to `COc1ccccc1N1CCN(CCCCOc2ccc(Cn3cncn3)cc2)CC1` [Example 2, 1-(2-methoxy-phenyl)-4-[4-(4-[1,2,4]triazol-1-ylmethyl-phenoxy)-butyl]-piperazine], in test [2], the inhibition at 0.01 µM stood at 80.3%. The compound also registered an inhibition in vivo at 3 mg/kg in the test with mice [1] of 93.3%.

Take `COc1ccccc1N1CCN(CCCCOc2ccc(CN(C)C)cc2)CC1` [Example 19, (4-{4-[4-(2-methoxy-phenyl)-piperazin-1-yl]-butoxy}-benzyl)-dimethyl-amine dihydrochloride]: the inhibition at 0.01 µM in test [2] was 59.6%. The inhibition in vivo at 1 mg/kg in the test with mice [3] was 50.6%. The compound further registered an inhibition in vivo at 7.5 mg/kg with mice [1] of 50.8%.

In test [2], `COc1ccccc1N1CCN(CCCCOc2ccc(CCn3nnc(C)n3)cc2)CC1` [Example 54, 1-(2-Methoxy-phenyl)-4-(4-{4-[2-(5-methyl-tetrazol-2-yl)-ethyl]-phenoxy}-butyl)-piperazine] yielded an inhibition at 0.01 µM of 71%. This compound also had an inhibition in vivo at 1 mg/kg with mice [3] of 31.8%.

As for `COc1ccccc1N1CCN(CCCCOc2ccc(CN3CCOCC3)cc2)CC1` [Example 32, 4-(4-{4-[4-(2-methoxy-phenyl)-piperazin-1-yl]-butoxy}-benzyl)-morpholine], the inhibition in vivo at 7.5 mg/kg in the test with mice [1] was found to be 27.8%.

For `COc1ccccc1N1CCN(CCCCOc2ccc(CCn3ccnn3)cc2)CC1` [Example 50, 1-(2-methoxy-phenyl)-4-{4-[4-(2-[1,2,3]triazol-1-yl-ethyl)-phenoxy]-butyl}-piperazine], at 0.01 µM the inhibition in test [2] was 51%. Further, in the test on mice [3], testing at 1 mg/kg gave an inhibition in vivo of 46.9%. In addition, testing at 7.5 mg/kg with mice [1] gave an inhibition in vivo of 96.8%.

With `COc1ccccc1N1CCN(CCCCOc2ccc(CCn3cnnn3)cc2)CC1` [Example 52, 1-(2-methoxy-phenyl)-4-{4-[4-(2-tetrazol-1-yl-ethyl)-phenoxy]-butyl}-piperazine], in test [2], at 0.01 µM the inhibition was 62%. Moreover, in the test with mice [3], testing at 1 mg/kg gave an inhibition in vivo of 26.4%.

`COc1ccccc1N1CCN(CCCCOc2cccc(Cn3ccnc3)c2)CC1` [Example 5, 1-[4-(3-imidazol-1-ylmethyl-phenoxy)-butyl]-4-(2-methoxy-phenyl)-piperazine-hydrochloride] yielded an inhibition at 0.01 µM in test [2] of 50.7%. Also, the inhibition in vivo at 1 mg/kg with mice [3] came out at 21.2%. For the same compound, testing at 7.5 mg/kg in the test on mice [1] gave an inhibition in vivo of 60.3%.

Compound `COc1ccccc1N1CCN(CCCCOc2ccc(CN3CCCCC3)cc2)CC1` [Example 20, 1-(2-methoxy-phenyl)-4-[4-(4-piperidin-1-ylmethyl-phenoxy)-butyl]-piperazine] showed an inhibition at 0.01 µM in test [2] of 68.5%. In addition, testing at 7.5 mg/kg in the test with mice [1] gave an inhibition in vivo of 27%.

With `COc1ccccc1N1CCN(CCCCOc2ccc(CNc3ccccc3)cc2)CC1` [Example 21, (4-{4-[4-(2-methoxy-phenyl)-piperazin-1-yl]-butoxy}-benzyl)-phenyl-amine], testing at 0.01 µM in test [2] gave an inhibition of 38.2%. The same compound gave an inhibition in vivo at 3 mg/kg with mice [1] of 29.9%.

For `COc1ccccc1N1CCN(CCCCOc2ccc(CCn3nccn3)cc2)CC1` [Example 49, 1-(2-methoxy-phenyl)-4-{4-[4-(2-[1,2,3]triazol-2-yl-ethyl)-phenoxy]-butyl}-piperazine], in test [2], the inhibition at 0.01 µM turned out to be 45%. Besides, the inhibition in vivo at 1 mg/kg in the test with mice [3] is 34.3%.

`COc1ccccc1N1CCN(CCCCOc2ccc(CCn3ncnn3)cc2)CC1` [Example 51, 1-(2-methoxy-phenyl)-4-{4-[4-(2-tetrazol-2-yl-ethyl)-phenoxy]-butyl}-piperazine] displayed an inhibition at 0.01 µM in test [2] of 47%. The compound also displayed an inhibition in vivo at 1 mg/kg in the test with mice [3] of 14.7%. This compound yielded an inhibition in vivo at 7.5 mg/kg in the test on mice [1] of 44.4%.

In the case of `COc1ccccc1N1CCN(CCCCOc2ccc(Cn3ccnn3)cc2)CC1` [Example 12, 1-(2-methoxy-phenyl)-4-[4-(4-[1,2,3]triazol-1-ylmethyl-phenoxy)-butyl]-piperazine], in test [2], the inhibition at 0.01 µM is 60.9%. Testing at 1 mg/kg with mice [3] gave an inhibition in vivo of 12.7%. The compound further showed an inhibition in vivo at 3 mg/kg in the test with mice [1] of 97.3%.

As for `COc1ccccc1N1CCN(CCCCOc2cccc(CN(C)C)c2)CC1` [Example 28, (3-{4-[4-(2-methoxy-phenyl)-piperazin-1-yl]-butoxy}-benzyl)-dimethyl-amine], the inhibition at 0.01 µM in test [2] stood at 13.5%. Besides, the inhibition in vivo at 3 mg/kg in the test on mice [1] is 24.6%.

Compound `COc1ccccc1N1CCN(CCCCOc2ccc(CCn3ccnc3)cc2)CC1` [Example 47, 1-{4-[4-(2-imidazol-1-yl-ethyl)-phenoxy]-butyl}-4-(2-methoxy-phenyl)-piperazine] gave an inhibition at 0.01 µM in test [2] of 70%. In the test on mice [1], this compound registered an inhibition in vivo at 3 mg/kg of 39.3%.

Regarding `COc1ccccc1N1CCN(CCCCOc2ccc(Cn3nnnc3C)cc2)CC1` [Example 18, 1-(2-methoxy-phenyl)-4-{4-[4-(5-methyl-tetrazol-1-ylmethyl)-phenoxy]-butyl}-piperazine], 0.01 µM produced 69.5% inhibition in test [2]. In the test on mice [3], this compound showed an inhibition in vivo at 1 mg/kg of 14.7%.

Take `COc1ccccc1N1CCN(CCCCOc2ccc(Cn3ccnc3)cc2)CC1` [Example 1, 1-[4-(4-imidazol-1-ylmethyl-phenoxy)-butyl]-4-(2-methoxy-phenyl)-piperazine]: the inhibition at 0.01 µM in test [2] turned out to be 83.1%. In the test on mice [1], this compound yielded an inhibition in vivo at 3 mg/kg of 28.7%.

Compound `Clc1cccc(N2CCN(CCCCOc3ccc(Cn4ncnn4)cc3)CC2)c1Cl` [Example 36, 1-(2,3-dichloro-phenyl)-4-[4-(4-tetrazol-2-ylmethyl-phenoxy)-butyl]-piperazine] yielded an inhibition at 0.01 µM in test [2] of 28.1%. This compound displayed an inhibition in vivo at 3 mg/kg in the test on mice [1] of 25.3%.

The compound `Clc1cccc(N2CCN(CCCCOc3ccc(CN4CCOCC4)cc3)CC2)c1Cl` [Example 40, 4-(4-{4-[4-(2,3-Dichloro-phenyl)-piperazin-1-yl]-butoxy}-benzyl)-morpholine] registered an inhibition at 0.01 µM in test [2] of 45.6%. The compound further gave an inhibition in vivo at 1 mg/kg in the test on mice [3] of 10.6%.

Compound `COc1ccccc1N1CCN(CCCCOc2cccc(Cn3ncnn3)c2)CC1` [Example 8, 1-(2-methoxy-phenyl)-4-[4-(3-tetrazol-2-ylmethyl-phenoxy)-butyl]-piperazine hydrochloride] had an inhibition at 0.01 µM in test [2] of 81.6%. The inhibition in vivo at 1 mg/kg in the test on mice [3] is 19.6%.

Take `CN(C)Cc1ccc(OCCCCN2CCN(c3cccc(Cl)c3Cl)CC2)cc1` [Example 39, (4-{4-[4-(2,3-dichloro-phenyl)-piperazin-1-yl]-butoxy}-benzyl)-dimethyl-amine]: the inhibition at 0.01 µM in test [2] is 52.9%. Besides, in the test with mice [3], 1 mg/kg produced 30.4% inhibition in vivo.

In test [2], `CN(C)Cc1ccc(OCCCCN2CCN(c3ccccc3Cl)CC2)cc1` [Example 33, (4-{4-[4-(2-Chloro-phenyl)-piperazin-1-yl]-butoxy}-benzyl)-dimethyl-amine] registered an inhibition at 0.01 µM of 53.7%. Further, in the test with mice [3], 1 mg/kg produced 26.8% inhibition in vivo.

On to `COc1ccccc1N1CCN(CCCCOc2cccc(Cn3nccn3)c2)CC1` [Example 24, 1-(2-methoxy-phenyl)-4-[4-(3-[1,2,3]triazol-2-ylmethyl-phenoxy)-butyl]-piperazine], for which the inhibition at 0.01 µM in test [2] was found to be 51.6%. In the test with mice [1], this compound registered an inhibition in vivo at 3 mg/kg of 62.6%.

In test [2], `CN1CCN(Cc2ccc(OCCCCN3CCN(c4cccc(Cl)c4Cl)CC3)cc2)CC1` [Example 41] displayed an inhibition at 0.01 µM of 82.1%. This compound also registered an inhibition in vivo at 1 mg/kg with mice [3] of 14.1%.
